Each structure is given as a SMILES string. pIC50: −log10 of the molar value. Bounds are passed on as bounds.

The first test has as its system MV-4-11 cells. Kind of test: Cell Viability Assay in MV-4-11 Cells. It is filed as cell-based. Conditions: Homo sapiens, MV4-11, 72 h, MV-4-11 cells, 72 h, Cell-Titer Glo; read-out: IC50. The essentials:
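MV-4-11 cells at 7,000/well in IMDM with 10% FBS, exposed to compound for 72 h. Viability by CellTiter-Glo luminescence, normalized to DMSO as 100%, fitted with a four-parameter curve.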
In general, pIC50 refers to −log10 of the IC50, conventionally taken in molar units. Consider `Cc1csc2ccnc(N(C(=O)c3ccc(-c4nnc(CCC#N)s4)nc3)[C@@H]3CCCNC3)c12` [Example 912, 6-[5-(2-cyanoethyl)-1,3,4-thiadiazol-2-yl]-N-(3-methylthieno[3,2-c]pyridin-4-yl)-N-[(3R)-3-piperidyl]pyridine-3-carboxamide], for which the pIC50 was 6.77.
On the same count and under the same terms, with `COCCc1nnc(-c2ccc(C(=O)N(c3nccc4scc(C)c34)[C@@H]3CCCNC3)cn2)s1` [Example 913, 6-[5-(2-methoxyethyl)-1,3,4-thiadiazol-2-yl]-N-(3-methylthieno[3,2-c]pyridin-4-yl)-N-[(3R)-3-piperidyl]pyridine-3-carboxamide] the figure was 6.89.
For the compound `COc1cc(C)c2c(N(C(=O)c3ccc(-c4nc(C)no4)cc3)[C@@H]3CCCNC3)nccc2c1` [Example 914, N-(6-methoxy-8-methyl-1-isoquinolyl)-4-(3-methyl-1,2,4-oxadiazol-5-yl)-N-[(3R)-3-piperidyl] benzamide], the pIC50 is 6.89.
On the same count and under the same terms, under `Cc1cc(C)c2c(N(C(=O)c3ccc(-c4nc(C)no4)cc3)[C@@H]3CCCNC3)nccc2c1` [Example 915, N-(6,8-dimethyl-1-isoquinolyl)-4-(3-methyl-1,2,4-oxadiazol-5-yl)-N-[(3R)-3-piperidyl] benzamide] stands 7.07; under `Cc1cc(C)c2c(N(C(=O)c3ccc(-c4nc(C)no4)nc3)[C@@H]3CCCNC3)nccc2c1` [Example 916, N-(6,8-dimethyl-1-isoquinolyl)-6-(3-methyl-1,2,4-oxadiazol-5-yl)-N-[(3R)-3-piperidyl]pyridine-3-carboxamide], 6.24; under `Cc1nnc(-c2ccc(C(=O)N(c3nccc4cc(Cl)cc(C)c34)[C@@H]3CCCNC3)cn2)o1` [Example 917, N-(6-chloro-8-methyl-1-isoquinolyl)-6-(5-methyl-1,3,4-oxadiazol-2-yl)-N-[(3R)-3-piperidyl]pyridine-3-carboxamide], 6.96.
Still for that read-out and setting: with `Cc1nnc(-c2ccc(C(=O)N(c3nccc4cc(F)cc(C)c34)[C@@H]3CCCNC3)cn2)o1` [Example 918, N-(6-fluoro-8-methyl-1-isoquinolyl)-6-(5-methyl-1,3,4-oxadiazol-2-yl)-N-[(3R)-3-piperidyl]pyridine-3-carboxamide] the figure was 6.77; with `Cc1nnc(-c2ccc(C(=O)N(c3nccc4scc(C)c34)[C@@H]3CCCNC3)cn2)o1` [Example 919, 6-(5-methyl-1,3,4-oxadiazol-2-yl)-N-(3-methylthieno[3,2-c]pyridin-4-yl)-N-[(3R)-3-piperidyl]pyridine-3-carboxamide], 6.80; with `COCCn1cc(-c2ccc(C(=O)N(c3nccc4cc(F)cc(C)c34)[C@@H]3CCCNC3)cn2)nn1` [Example 920, N-(6-fluoro-8-methyl-1-isoquinolyl)-6-[1-(2-methoxyethyl)triazol-4-yl]-N-[(3R)-3-piperidyl]pyridine-3-carboxamide], 7.08.
The same measure, in the same setting: under `COCCn1cc(-c2ccc(C(=O)N(c3nccc4cc(Cl)cc(C)c34)[C@@H]3CCCNC3)cn2)nn1` [Example 921, N-(6-chloro-8-methyl-1-isoquinolyl)-6-[1-(2-methoxyethyl)triazol-4-yl]-N-[(3R)-3-piperidyl]pyridine-3-carboxamide] stands 7.28; under `Cc1cccc2ccnc(N(C(=O)c3ccc(-c4cncc5c4OCCC5)cc3)[C@@H]3CCCNC3)c12` [Example 922, (R)-4-(3,4-dihydro-2H-pyrano[3,2-c]pyridin-8-yl)-N-(8-methylisoquinolin-1-yl)-N-(piperidin-3-yl)benzamide], 6.38; under `Cc1csc2ccnc(N(C(=O)c3ccc(-c4nnn5c4CN(C)CC5)cc3F)[C@@H]3CCCNC3)c12` [Example 923, 2-fluoro-4-(5-methyl-6,7-dihydro-4H-triazolo[1,5-a]pyrazin-3-yl)-N-(3-methylthieno[3,2-c]pyridin-4-yl)-N-[(3R)-3-piperidyl]benzamide], less than 6.00.
As for `Cc1cccnc1N(C(=O)c1ccc(Nc2ncccn2)cc1)[C@@H]1CCCNC1` [Example 924, (R)—N-(3-methylpyridin-2-yl)-N-(piperidin-3-yl)-4-(pyrimidin-2-ylamino)benzamide], the pIC50 was 7.07.
Still for that read-out and setting: under `O=C(c1ccc(Nc2ncccn2)cc1)N(c1ncccc1Cl)[C@@H]1CCCNC1` [Example 925, (R)—N-(3-chloropyridin-2-yl)-N-(piperidin-3-yl)-4-(pyrimidin-2-ylamino)benzamide] stands 7.49; under `Cn1ccc2ccnc(N(C(=O)c3ccc(Nc4ncccn4)cc3F)[C@@H]3CCCNC3)c21` [Example 926, (R)-2-fluoro-N-(1-methyl-1H-pyrrolo[2,3-c]pyridin-7-yl)-N-(piperidin-3-yl)-4-(pyrimidin-2-ylamino)benzamide], 7.12.
On the same count and under the same terms, with `O=C(c1ccc(Nc2ncccn2)cc1F)N(c1nccc2ccccc12)[C@@H]1CCCNC1` [Example 927, (R)-2-fluoro-N-(isoquinolin-1-yl)-N-(piperidin-3-yl)-4-(pyrimidin-2-ylamino)benzamide] the figure was 6.70; with `Cc1cccc2ccnc(N(C(=O)c3ccc(N(C)c4ncccn4)cc3F)[C@@H]3CCCNC3)c12` [Example 928, (R)-2-fluoro-4-(methyl(pyrimidin-2-yl)amino)-N-(8-methylisoquinolin-1-yl)-N-(piperidin-3-yl)benzamide], 6.60.
In the case of `COC(=O)c1cnc(Nc2ccc(C(=O)N(c3nccc4cccc(C)c34)[C@@H]3CCCNC3)c(F)c2)nc1` [Example 929, methyl (R)-2-((3-fluoro-4-((8-methylisoquinolin-1-yl)(piperidin-3-yl)carbamoyl)phenyl)amino)pyrimidine-5-carboxylate], the pIC50 is 6.96.
As to `C=C(C)c1cccnc1N(C(=O)c1ccc(Nc2ncccn2)cc1F)[C@@H]1CCCNC1` [Example 930, (R)-2-fluoro-N-(piperidin-3-yl)-N-(3-(prop-1-en-2-yl)pyridin-2-yl)-4-(pyrimidin-2-ylamino)benzamide], the pIC50 was 6.40.
As to `Cc1cccc2ccnc(N(C(=O)c3ccc(Nc4nccc(-c5ccc6[nH]ncc6c5)n4)cc3F)[C@@H]3CCCNC3)c12` [Example 932, (R)-4-((4-(1H-indazol-5-yl)pyrimidin-2-yl)amino)-2-fluoro-N-(8-methylisoquinolin-1-yl)-N-(piperidin-3-yl)benzamide], the pIC50 was 7.70.
Still for that read-out and setting: with `CC(=O)N1CCN(c2ccnc(Nc3ccc(C(=O)N(c4nccc5cccc(C)c45)[C@@H]4CCCNC4)c(F)c3)n2)CC1` [Example 933, (R)-4-((4-(4-acetylpiperazin-1-yl)pyrimidin-2-yl)amino)-2-fluoro-N-(8-methylisoquinolin-1-yl)-N-(piperidin-3-yl)benzamide] the figure was 6.74; with `Cc1cccc2ccnc(N(C(=O)c3ccc(Nc4nccc(CN5CCN(C)CC5)n4)cc3F)[C@@H]3CCCNC3)c12` [Example 934, (R)-2-fluoro-N-(8-methylisoquinolin-1-yl)-4-((4-((4-methylpiperazin-1-yl)methyl)pyrimidin-2-yl)amino)-N-(piperidin-3-yl)benzamide], 6.92.
The same measure, in the same setting: with `Cc1cccc2ccnc(N(C(=O)c3ccc(Nc4nccc(N5CCS(=O)(=O)CC5)n4)cc3F)[C@@H]3CCCNC3)c12` [Example 935, (R)-4-((4-(1,1-dioxidothiomorpholino)pyrimidin-2-yl)amino)-2-fluoro-N-(8-methylisoquinolin-1-yl)-N-(piperidin-3-yl)benzamide] the figure was 7.20; with `Cc1cccc2ccnc(N(C(=O)c3ccc(Nc4nccc(N5CCC(C)(O)CC5)n4)cc3F)[C@@H]3CCCNC3)c12` [Example 936, (R)-2-fluoro-4-(4-(4-hydroxy-4-methylpiperidin-1-yl)pyrimidin-2-ylamino)-N-(8-methylisoquinolin-1-yl)-N-(piperidin-3-yl)benzamide], 7.62.
Same read-out and setting: under `Cc1cccc2ccnc(N(C(=O)c3ccc(Nc4nccc(N5CCOCC5=O)n4)cc3F)[C@@H]3CCCNC3)c12` [Example 937, (R)-2-fluoro-N-(8-methylisoquinolin-1-yl)-4-(4-(3-oxomorpholino)pyrimidin-2-ylamino)-N-(piperidin-3-yl)benzamide] stands 7.30.
Consider `Cc1cccc2ccnc(N(C(=O)c3ccc(Nc4nccc(N5CCNC(=O)C5)n4)cc3F)[C@@H]3CCCNC3)c12` [Example 938, (R)-2-fluoro-N-(8-methylisoquinolin-1-yl)-4-((4-(3-oxopiperazin-1-yl)pyrimidin-2-yl)amino)-N-(piperidin-3-yl)benzamide], for which the negative-log IC50 (pIC50) is 6.54.
Regarding `Cc1cccc2ccnc(N(C(=O)c3ccc(Nc4nccc(N5[C@H](C)COC[C@H]5C)n4)cc3F)[C@@H]3CCCNC3)c12` [Example 939, 4-((4-((3R,5R)-3,5-dimethylmorpholino)pyrimidin-2-yl)amino)-2-fluoro-N-(8-methylisoquinolin-1-yl)-N—((R)-piperidin-3-yl)benzamide], the pIC50 was 7.16.
Same read-out and setting: with `Cc1cccc2ccnc(N(C(=O)c3ccc(Nc4nccc(N5[C@H](C)COC[C@@H]5C)n4)cc3F)[C@@H]3CCCNC3)c12` [Example 940, 4-((4-((3R,5S)-3,5-dimethylmorpholino)pyrimidin-2-yl)amino)-2-fluoro-N-(8-methylisoquinolin-1-yl)-N—((R)-piperidin-3-yl)benzamide] the figure was 7.47.
The same measure, in the same setting: with `Cc1cccc2ccnc(N(C(=O)c3ccc(Nc4nccc(N5CCOC[C@H]5C(C)C)n4)cc3F)[C@@H]3CCCNC3)c12` [Example 941, 2-fluoro-4-((4-((R)-3-isopropylmorpholino)pyrimidin-2-yl)amino)-N-(8-methylisoquinolin-1-yl)-N—((R)-piperidin-3-yl)benzamide] the figure was 7.41.

Still in this test, the particulars now being: MV-4-11 cells, 72 h, Cell-Titer Glo; read-out: IC50.
For the compound `Cc1csc2ccnc(N(C(=O)c3ccc(Nc4ncccn4)cc3F)[C@@H]3CCCNC3)c12` [Example 931, (R)-2-fluoro-N-(3-methylthieno[3,2-c]pyridin-4-yl)-N-(piperidin-3-yl)-4-(pyrimidin-2-ylamino)benzamide], the pIC50 was 6.77.

For the origin of these results see US20240400555A1 (Initial Therapeutics, Inc., priority 2023, published 2024).
